# Laboratory results taken from US20080234310A1, “Methods and Compositions for Slowing Aging” (priority 2003, published 2008).
# Tests used:
# [1] = tested on: ion channels associated with glutamate receptors; test: Glutamate-induced uptake of 45Ca into rat brain synaptosomes (calcium-blocking properties); type: biochemical; conditions: glutamate-induced 45Ca uptake, K(43/21); compound 5 μM; 5 min at 30° C.
# Experimental: Evaluation of the calcium-blocking properties of the compounds was conducted with P2-fraction of synaptosomes, which were isolated from the brain of newborn (8-11 days) rats according to the protocol described in [Bachurin et al. Neuroprotective and cognition enhancing properties of MK-801 flexible analogs. Structure-activity relationships.//Ann. N.Y. Acad. Sci., 2001, v. 939, pp. 219-235]. In this test, the ability of the compounds to inhibit a specific uptake of calcium ions via ion channels associated with glutamate receptors was determined.
# Synaptosomes were placed into the incubation buffer A (132 mM NaCl, 5 mM KCl, 5 mM HEPES) and were kept at 0° C. during the entire experiment. Aliquots of synaptosomes (50 μl) were placed in the media A, containing investigated compounds and a preparation of the radiolabeled calcium, ^45Ca. The calcium uptake was stimulated by the introduction into the media of the 20 μl of the 10 mM solution of glutamate. After a 5 min incubation at 30° C. the reaction was interrupted by a filtration through GF/B filters, which were then triple washed with the cold buffer B (145 mM KCl, 10 mM tris, 5 mM trilon B). Then, filters were subjects for the detection of the radiolabeled calcium. The measurement was conducted using a scintillation counter ‘SL-4000 Intertechnic”. The initial screening was conducted with a concentration of each compound of 5 μM. A specific calcium uptake was calculated using the following equation
# where: • Ca1 is a calcium uptake in a control experiment (no glutamate or test compound added); • Ca2 is a calcium uptake in the presence of glutamate only (Glutamate Induced Calcium Uptake—GICU); • Ca3 is a calcium uptake in the presence of a test compound only (no glutamate added); Ca4 is a calcium uptake in the presence of both glutamate and a test compound.
# C57/B female mice [2] = test: Lifespan: amount of alive animals depending on age, Dimebon in drinking water; type: in vivo; conditions: for Amount of alive animals: 3 mg/kg daily in water
# Experimental: (§1) Experiments were conducted with C57/B female mice, starting from their age of 12 months. Mice were kept on cells, 10 animals per a cell. Both control and experimental group included 50 animals in each group. […] The day-night cycle was 12 hours.
# (§2) Prior to the experiment, daily and weekly water consumption by the animals in one cell was measured. Dimebon was added in water in such amount that each animal would consume 3 mg/kg of Dimebon per day in average. Bottles with water containing Dimebon were replaced every 7 days. Animals in the control group were receiving pure water.
# (§3) Prior to the experiment, all the animals were weighed, and an average weight was determined in every group, every cell, as well as the weight of all animals in every cell. The condition of skin, hair, and eyes were also determined by visual inspection. […] Evaluation of all these parameters was conducted on a monthly basis.
# (§4) Statistics was calculated using Student T-test and ‘ Chi-squared’ criteria.
# Evaluation of the parameter of the length of life was conducted employing methods used in demography. This parameter was a probability of death in every age group.
# [3] = Dynamics in weight of animals depending on age and Dimebon consumption; type: in vivo, mice; conditions: for average weight of animals: 3 mg/kg daily in water
# Experimental: as §1, §2, §3, §4
# C57/B female mice [4] = test: Vision disturbances (development of age-related cataract) depending on age and Dimebon consumption; type: in vivo; conditions: for amount of animals that have cataract: 3 mg/kg daily in water
# Experimental: as §1, §2, §3, §4
# C57/B female mice [5] = test: Disturbances in skin-hair integument (alopecia) depending on age and Dimebon consumption; type: in vivo; conditions: for % of animals that have alopecia: 3 mg/kg daily in water
# Experimental: as §1, §2, §3, §4
compound,measurement,setting,value
"Cc1ccc2c(c1)c1c(n2Cc2ccccc2)CCN(C)C1.Cl.Cl [Compound 4, 2,8-dimethyl-5-benzyl-2,3,4,5-tetrahydro-1H-pyrido(4,3-b)indol dihydrochloride]",% Ca to control,[1],22.5 ± 3.5%
"CN1CCc2[nH]c3ccccc3c2C1 [Compound 7, 2-methyl-2,3,4,5-tetrahydro-1H-pyrido(4,3-b)indol]",% Ca to control,[1],35.5 ± 2.5%
"2-methyl-5-(2-(6-methyl-3-pyridyl)-ethyl)-2,3,4,5-tetrahydro-1H-pyrido(4,3-b)indol sesquisulfate monohydrate [Compound 5]",% Ca to control,[1],33.5 ± 1.5%
"Cc1ccc2c(c1)c1c(n2CCc2ccc(C)nc2)CCN(C)C1.Cl.Cl [Compound 6, 2,8-dimethyl-5-(2-(6-methyl-3-pyridyl)-ethyl)-2,3,4,5-tetrahydro-1H-pyrido(4,3-b)indol dihydrochloride]",Amount of alive animals,"C57/B female mice [2]; age 12 months (start), 50 animals per group",50
same,Amount of alive animals,C57/B female mice [2]; age 13 months,50
same,Amount of alive animals,C57/B female mice [2]; age 14 months,49
same,Amount of alive animals,C57/B female mice [2]; age 15 months,48
same,Amount of alive animals,C57/B female mice [2]; age 16 months,47
same,Amount of alive animals,C57/B female mice [2]; age 17 months,47
same,Amount of alive animals,C57/B female mice [2]; age 18 months,42
same,Amount of alive animals,C57/B female mice [2]; age 19 months,39
same,Amount of alive animals,C57/B female mice [2]; age 20 months,35
same,Amount of alive animals,C57/B female mice [2]; age 21 months,32
same,Amount of alive animals,C57/B female mice [2]; age 22 months,28
same,Amount of alive animals,C57/B female mice [2]; age 23 months,25
same,Amount of alive animals,C57/B female mice [2]; age 24 months,18
same,Amount of alive animals,C57/B female mice [2]; age 25 months,11
same,probability of death versus control group,"C57/B female mice [2]; all age groups, 3 mg/kg daily, significant (P<0.05) at 20-23 months",lower
same,age-related weight depletion,"[3]; 3 mg/kg daily, depletion only in 23 month old animals, variation versus control not significant (P>0.05)",No weight depletion was observed
same,average weight of animals,[3]; age 12 months (start),24.7 g
same,average weight of animals,[3]; age 13 months,24.7 g
same,average weight of animals,[3]; age 14 months,24.7 g
same,average weight of animals,[3]; age 15 months,26 g
same,average weight of animals,[3]; age 16 months,25.5 g
same,average weight of animals,[3]; age 17 months,24.7 g
same,average weight of animals,[3]; age 18 months,25.5 g
same,average weight of animals,[3]; age 19 months,26 g
same,average weight of animals,[3]; age 20 months,26 g
same,average weight of animals,[3]; age 21 months,25.6 g
same,average weight of animals,[3]; age 22 months,25.1 g
same,average weight of animals,[3]; age 23 months,24.7 g
same,average weight of animals,[3]; age 24 months,24 g
same,average weight of animals,[3]; age 25 months,23.7 g
same,amount of animals that had cataract versus control group,"C57/B female mice [4]; 3 mg/kg daily, P<0.05 for 13 to 20 months old mice",significantly less
same,amount of animals that have cataract,C57/B female mice [4]; age 12 months (start),0%
same,amount of animals that have cataract,C57/B female mice [4]; age 13 months,0%
same,amount of animals that have cataract,C57/B female mice [4]; age 14 months,0%
same,amount of animals that have cataract,C57/B female mice [4]; age 15 months,4%
same,amount of animals that have cataract,C57/B female mice [4]; age 16 months,6%
same,amount of animals that have cataract,C57/B female mice [4]; age 17 months,6%
same,amount of animals that have cataract,C57/B female mice [4]; age 18 months,10%
same,amount of animals that have cataract,C57/B female mice [4]; age 19 months,13%
same,amount of animals that have cataract,C57/B female mice [4]; age 20 months,17%
same,amount of animals that have cataract,C57/B female mice [4]; age 21 months,25%
same,% Ca to control,[1],48.5 ± 2.5%
same,% of animals that have alopecia,C57/B female mice [5]; age 12 months (start),0%
same,% of animals that have alopecia,C57/B female mice [5]; age 13 months,0%
same,% of animals that have alopecia,C57/B female mice [5]; age 14 months,2%
same,% of animals that have alopecia,C57/B female mice [5]; age 15 months,6%
same,% of animals that have alopecia,C57/B female mice [5]; age 16 months,10%
same,% of animals that have alopecia,C57/B female mice [5]; age 17 months,20%
same,% of animals that have alopecia,C57/B female mice [5]; age 18 months,12%
same,% of animals that have alopecia,C57/B female mice [5]; age 19 months,14%
same,% of animals that have alopecia,C57/B female mice [5]; age 20 months,34%
same,% of animals that have alopecia,C57/B female mice [5]; age 21 months,35%
same,"development of non-fatal pathologies, such as loss of vision and alopecia","C57/B female mice [5]; old animals fed Dimebon 3 mg/kg daily, alopecia difference 13th-21st month P<0.05",slowing of the development
"c1ccc(CN2CCc3[nH]c4ccccc4c3C2)cc1 [Compound 3, 2-benzyl-2,3,4,5-tetrahydro-1H-pyrido(4,3-b)indol]",% Ca to control,[1],28.5 ± 2.5%
"2-dimethyl-2,3,4,5-tetrahydro-1H-pyrido(4,3-b)indol methyl iodide [Compound 8]",% Ca to control,[1],18.0 ± 2.5%
"CN1CCc2[nH]c3ccc(Br)cc3c2C1.Cl [Compound 9, 2-methyl-8-bromo-2,3,4,5-tetrahydro-1H-pyrido(4,3-b)indol hydrochloride]",% Ca to control,[1],30.0 ± 3.5%
"CCN1CCc2[nH]c3ccccc3c2C1 [Compound 2, 2-ethyl-2,3,4,5-tetrahydro-1H-pyrido(4,3-b)indol]",% Ca to control,[1],36.5 ± 0.5%
